One data set concerns SR. Put plainly: NCI SRB assay. The format is cell-based, human. The conditions noted are these: for GI%: 10 μM; for Growth Percent: 1.00E-5 Molar. A general note: Sulforhodamine B stains cellular protein and so reports cell mass.
The subject of another data set is UO-31. Briefly: NCI SRB assay. The class given is cell-based, human. The conditions noted are these: for GI%: UO-31, 10 μM; for Growth Percent: UO-31, 1.00E-5 Molar; for CC50: read-out: LC50 (the source's name).
The next data set relates to MDA-MB-231. Put plainly: NCI SRB assay. The conditions noted are these: for GI%: MDA-MB-231, 10 μM; for Growth Percent: 1.00E-5 Molar; for CC50: read-out: LC50 (the source's name). The class given is cell-based.
For a further data set, the system named is UACC-62. Put plainly: NCI SRB assay. The class given is cell-based, human. The conditions noted are these: for GI%: UACC-62, 10 μM; for Growth Percent: UACC-62, 1.00E-5 Molar.
For a further data set, the system named is HCT-15. Put plainly: NCI SRB assay. The format is cell-based, human. The conditions noted are these: for GI%: HCT-15, 10 μM; for Growth Percent: HCT-15, 1.00E-5 Molar.
Another data set deals with T1, hCA II (Homo sapiens, UniProt P00918).
T1 construct: made in house
Briefly: stopped flow CO2 hydrase assay. The format is biochemical. The conditions noted are these: mean from 3 assays. The procedure:
Carbonic anhydrase inhibition assay
The carbonic anhydrase catalyzed CO2 hydration actions for the quinazoline-based carboxylic acid derivatives (6a-c, 7a-c and 8a-c) were assayed utilizing an instrument of Applied Photophysics stopped-flow, as described previously. The enzymes are recombinant proteins prepared in our lab. Phenol red (at a concentration of 0.2 mM) has been used as indicator, working at the absorbance maximum of 557 nm, with 20 mM Hepes (pH 7.5) as buffer, and 20 mM Na2SO4 (for maintaining constant the ionic strength), following the initial rates of the CA- […]
1.7 to 17 mM for the determination of the kinetic parameters and inhibition constants. For each inhibitor at least six traces of the initial 5-10% of the reaction have been used for determining the initial velocity. The uncatalyzed rates were determined in the same manner and subtracted from the total observed rates. Stock solutions of inhibitor (0.1 mM) were prepared in distilled-deionized water and dilutions up to 0.01 nM were done thereafter with the assay buffer. Inhibitor and enzyme solutions were preincubated together for 15 min at room temperature prior to assay, in order to allow for the formation of the E-I complex. The inhibition constants were obtained by non-linear least-squares methods using PRISM 3 and the Cheng-Prusoff equation, and represent the mean from at least three different determinations.

A further data set relates to SW-620. Put plainly: NCI SRB assay. The class given is cell-based, human. The conditions noted are these: for GI%: SW-620, 10 μM; for Growth Percent: SW-620, 1.00E-5 Molar.
For another data set, the system named is A549/ATCC. Put plainly: NCI SRB assay. The format is cell-based, human. The conditions noted are these: for GI%: 10 μM; for Growth Percent: 1.00E-5 Molar.
The test system of another data set is RXF 393. Briefly: NCI SRB assay. The format is cell-based, human. The conditions noted are these: for CC50: read-out: LC50 (the source's name).
Where [1] appears, read: Homo sapiens, UO-31, UO-31, 5-dose.
Setting [2] is: Homo sapiens, HCT-15, HCT-15, 5-dose.

Like-named read-outs stand apart in the source and are kept apart here.

Consider six compounds from article PMC10035947, “Development of novel anilinoquinazoline-based carboxylic acids as non-classical carbonic anhydrase IX and XII inhibitors” (Journal of Enzyme Inhibition and Medicinal Chemistry, 2023).

`Cc1cccc(-c2nc(Nc3ccccc3C(=O)O)c3ccccc3n2)c1` [6a, 2-((2-(m-Tolyl)quinazolin-4-yl)amino)benzoic acid]: the GI% with SR came out at 77%; with UO-31, 69%; with MDA-MB-231 it was 34%; in the data set with UACC-62 it was 72%; in the data set on HCT-15, 86%; with SW-620 it was 65%. This compound also came in with a GI% in the data set on A549/ATCC (A549/ATCC) of 56%. For the same compound, the “Growth Percent” value in the data set with SR is 23.03%; with UO-31, 31.01%; in the data set with MDA-MB-231 (MDA-MB-231/ATCC), 66.08%; with UACC-62 it was 28.00%; in the data set with HCT-15, 14.29%; in the data set on SW-620 it was 35.45%. Further, the “Growth Percent” value in the data set on A549/ATCC (A549/ATCC) was determined as 43.63%. The same compound displayed an inhibition constant (Ki) on hCA II of 85.2 µM.

As to `Cc1ccc(-c2nc(Nc3ccccc3C(=O)O)c3ccccc3n2)cc1` [6b, 2-((2-(p-Tolyl)quinazolin-4-yl)amino)benzoic acid], the GI% amounted to 81% with SR; 87% in the data set with UO-31; 65% in the data set on MDA-MB-231; 89% in the data set with UACC-62; 95% in the data set on HCT-15; 86% in the data set on SW-620. The same compound came in with a GI% in the data set with A549/ATCC (A549/ATCC) of 70%. For the same compound, the “Growth Percent” value in the data set with SR amounted to 18.56%; with UO-31, 12.56%; with MDA-MB-231 (MDA-MB-231/ATCC), 35.40%; with UACC-62 it was 11.04%; in the data set on HCT-15 it was 4.66%; in the data set on SW-620 it was 14.46%. Besides, in the data set on A549/ATCC (A549/ATCC), the “Growth Percent” value came to 30.48%. Moreover, the LC50 (50% lethal concentration) with SR (5-dose) is below 100 µM; in the data set on SR (Homo sapiens, 5-dose) it was above 100 µM. Also, the TGI was below 100 µM with SR (5-dose); above 1.00E-4 Molar in the data set on SR (5-dose, listed as D - 835857); 77.9 µM in the data set with UO-31 (UO-31, 5-dose); 7.79E-5 Molar in the data set with UO-31 (UO-31, 5-dose, listed as D - 835857); 59.7 µM in the data set with MDA-MB-231 (MDA-MB-231, 5-dose); 5.97E-5 Molar in the data set on MDA-MB-231 (MDA-MB-231/ATCC, 5-dose). Also, the TGI with RXF 393 (RXF 393, 5-dose) was 65.9 µM; with RXF 393 (RXF 393, 5-dose, listed as D - 835857), 6.59E-5 Molar; in the data set on UACC-62 (UACC-62, 5-dose), 27.0 µM; in the data set with UACC-62 (UACC-62, 5-dose, listed as D - 835857), 2.70E-5 Molar; with HCT-15 (HCT-15, 5-dose), 28.7 µM; with HCT-15 (HCT-15, 5-dose, listed as D - 835857), 2.87E-5 Molar. Also, the TGI is below 100 µM with SW-620 (SW-620, 5-dose); above 1.00E-4 Molar with SW-620 (SW-620, 5-dose, listed as D - 835857); below 100 µM with A549/ATCC (A549/ATCC, 5-dose); above 1.00E-4 Molar in the data set with A549/ATCC (A549/ATCC, 5-dose, listed as D - 835857). Also, the GI50 worked out at 10.3 µM with SR (Homo sapiens, 5-dose); 7.33 µM in the data set on UO-31 (setting [1]); 7.3 µM in the data set on UO-31 (UO-31, 5-dose); 17.2 µM with MDA-MB-231 (Homo sapiens, MDA-MB-231); 13.1 µM with RXF 393 (Homo sapiens, RXF 393, 5-dose); 10.2 µM in the data set with UACC-62 (Homo sapiens, UACC-62, 5-dose). The concentration for 50% growth inhibition (GI50) came out at 5.8 µM in the data set on HCT-15 (HCT-15, 5-dose); 5.82 µM with HCT-15 (setting [2]); 18.2 µM with SW-620 (Homo sapiens, SW-620, 5-dose); 8.31 µM in the data set with A549/ATCC (Homo sapiens, A549/ATCC, 5-dose). The CC50 in the data set on UO-31 (setting [1]) is above 100 µM; with UO-31 (UO-31, 5-dose) it was below 100 µM; in the data set with MDA-MB-231 (Homo sapiens, MDA-MB-231, MDA-MB-231, 5-dose) it was below 100 µM; in the data set on MDA-MB-231 (Homo sapiens, MDA-MB-231, MDA-MB-231/ATCC, 5-dose) it was above 100 µM; in the data set on RXF 393 (Homo sapiens, RXF 393, RXF 393, 5-dose), above 100 µM; with RXF 393 (RXF 393, 5-dose) it was below 100 µM. The CC50 in the data set with UACC-62 (Homo sapiens, UACC-62, 5-dose, read-out: LC50 (the source's name)) is 71.6 µM. The 50% lethal concentration (LC50) in the data set on HCT-15 (HCT-15, 5-dose) is below 100 µM; in the data set with HCT-15 (setting [2]), above 100 µM; in the data set on SW-620 (Homo sapiens, SW-620, SW-620, 5-dose), above 100 µM; in the data set with SW-620 (SW-620, 5-dose) it was below 100 µM; in the data set with A549/ATCC (A549/ATCC, 5-dose) it was below 100 µM; in the data set with A549/ATCC (Homo sapiens, A549, A549/ATCC, 5-dose), above 100 µM. This compound also came in with an inhibition constant (Ki) on hCA II of 48.2 µM.

As to `COc1ccc(-c2nc(Nc3ccccc3C(=O)O)c3ccccc3n2)cc1` [6c, 2-((2–(4-Methoxyphenyl)quinazolin-4-yl)amino)benzoic acid], the “Growth Percent” value was 68.31% in the data set with RXF 393 (RXF 393, 1.00E-5 Molar); 55.88% in the data set with UACC-62; 39.33% in the data set on HCT-15; 39.05% in the data set with SW-620; 39.61% with A549/ATCC (A549/ATCC). The GI% in the data set on UACC-62 was 44%; in the data set on HCT-15, 61%; with SW-620, 61%; in the data set on A549/ATCC (A549/ATCC), 60%. This compound returned a Ki on hCA II of 83.1 µM.

As to `Cc1ccc(-c2nc(Nc3cccc(C(=O)O)c3)c3ccccc3n2)cc1` [7b, 3-((2-(p-Tolyl)quinazolin-4-yl)amino)benzoic acid], the GI% in the data set with SR is on record as 41%; in the data set with UO-31 it was 51%; with UACC-62 it was “– (Only GI% higher than 20% are shown)”; in the data set on HCT-15 it was 55%; in the data set with SW-620, “– (Only GI% higher than 20% are shown)”; in the data set on A549/ATCC (A549/ATCC), “– (Only GI% higher than 20% are shown)”. In addition, the “Growth Percent” value amounted to 58.68% in the data set on SR; 48.97% in the data set on UO-31; 95.55% with MDA-MB-231 (MDA-MB-231/ATCC); 87.74% with UACC-62; 45.38% in the data set on HCT-15; 94.08% in the data set on SW-620. In addition, in the data set on A549/ATCC (A549/ATCC), the “Growth Percent” value stood at 90.82%. This compound displayed a Ki on hCA II of 41.7 µM.

Take `Cc1cccc(-c2nc(Nc3ccc(C(=O)O)cc3)c3ccccc3n2)c1` [8a, 4-((2-(m-Tolyl)quinazolin-4-yl)amino)benzoic acid]: the GI% is 32% in the data set with SR; 54% in the data set with UO-31; “– (Only GI% higher than 20% are shown)” with UACC-62; 29% with HCT-15; “– (Only GI% higher than 20% are shown)” with SW-620; 22% in the data set with A549/ATCC (A549/ATCC). The “Growth Percent” value in the data set on SR came out at 67.75%; with UO-31, 45.85%; with MDA-MB-231 (MDA-MB-231/ATCC), 93.31%; in the data set with UACC-62, 104.52%; with HCT-15 it was 70.54%; in the data set on SW-620, 84.27%. The “Growth Percent” value with A549/ATCC (A549/ATCC) is 78.30%. In addition, at hCA II, the Ki was found to be 9.3 µM.

For `Cc1ccc(-c2nc(Nc3ccc(C(=O)O)cc3)c3ccccc3n2)cc1` [8b, 4-((2-(p-Tolyl)quinazolin-4-yl)amino)benzoic acid], the GI% with SR was 38%; with UO-31 it was 58%; in the data set with UACC-62 it was “– (Only GI% higher than 20% are shown)”; in the data set with HCT-15, 49%; with SW-620 it was “– (Only GI% higher than 20% are shown)”; with A549/ATCC (A549/ATCC) it was “– (Only GI% higher than 20% are shown)”. In addition, the “Growth Percent” value with SR is 61.50%; in the data set with UO-31, 41.73%; in the data set on MDA-MB-231 (MDA-MB-231/ATCC), 87.83%; in the data set with UACC-62 it was 95.83%; in the data set with HCT-15, 50.85%; with SW-620 it was 91.47%. The “Growth Percent” value with A549/ATCC (A549/ATCC) is recorded as 95.03%. The compound further yielded a Ki on hCA II of 3.9 µM.

As a reminder, the Ki is a measure of affinity in units of concentration, obtained from inhibition or displacement. A higher Ki goes with weaker binding. As a reminder, the GI50 is the concentration giving 50% growth inhibition. Usually LC50 stands for the concentration that kills 50% of the test population. Lower therefore signals a more lethal substance.
